Laboratory results: patent publication US7772402B2, “Optically detectable organophosphonates” (Austria Wirtschaftsservice Gesellschaft Mit Beschrankter …, priority 2003, dated 2010)

Legend:
[1] = target: T1, lipase from Pseudomonas cepacia (PCL) (Burkholderia cepacia, UniProt P22088); experiment: Inhibition of lipase activity in Triton X-100 micelles, continuous fluorescence method; format: biochemical; conditions: incubation 4° C., 16 hrs; FIG. 3b
T1 construct: R.D. Schmid, University of Stuttgart (obtained, not a commercial purchase)
T1 sequence (P22088 45-364): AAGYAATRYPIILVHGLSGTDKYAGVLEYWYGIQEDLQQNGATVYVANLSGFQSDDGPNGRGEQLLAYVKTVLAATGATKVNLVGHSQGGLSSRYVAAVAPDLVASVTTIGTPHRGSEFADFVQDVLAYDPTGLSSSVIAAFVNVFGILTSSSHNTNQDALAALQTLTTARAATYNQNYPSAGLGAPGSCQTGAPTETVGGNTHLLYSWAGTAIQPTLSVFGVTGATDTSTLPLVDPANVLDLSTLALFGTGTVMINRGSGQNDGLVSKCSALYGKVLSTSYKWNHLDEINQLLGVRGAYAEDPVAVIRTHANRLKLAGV
Method: (§1) Inhibition of lipase activity by the water-insoluble phosphonates was performed in Triton X-100 micelles (2 mM final concentration) and measured by a continuous fluorescence method according to Duque et al, (J. Lipid Res. 37, 868-876 (1996)) using 3-O-hexadecyl-2-pyrenedecanoyl-1-trinitrophenylaminododecanoyl-sn-glycerol as a substrate. Lipase activity was determined at 30° C. from the dequenching of pyrene fluorescence at 378 nm (excitation at 342 nm, slit widths 5.0 nm each) (the initial linear increase in fluorescence intensity after addition of the lipase was used to measure enzyme activity). The measurements were performed in ethanol-water (1:3 by vol.) as a solvent.
(§2) Triton X-100 specially purified for membrane research (Hofmann La Roche) (10 μL of a 100 mM stock solution in chloroform) and the appropriate volume of a phosphonate solution in chloroform were mixed and the solvent was removed under a stream of nitrogen. The residue was dispersed in an 100 μM Tris-HCl puffer (pH 7.40 at 37° C.) by vigorous vortexing followed by addition of an aliquot of a lipase solution, giving a total volume of 500 μL. Incubations were performed at 4° C. The percentage of inhibition after 16 hrs in the reaction mixture was determined by measuring the residual lipase activity of appropriate aliquots (3 μL) as indicated above. Controls were run in parallel under identical conditions but in the absence of inhibitors.
(§3) The novel compounds were tested with respect to their ability to inhibit three selected microbial lipases with different substrate preferences. The lipase from Rhizopus oryzae was efficiently inactivated by the perylene- and NBD-inhibitors (FIG. 3a) at 4° C. for 16 hrs in 100 μM Tris-HCl puffer at inhibitor and lipase concentrations of 1.0 mM and 0.1 mM, respectively. […] This is in line with the assumption that lipases prefer long-chain glycerol esters as substrates, and evidently inhibitors as well. […] In contrast, the Pseudomonas species lipase was quantitatively inactivated by all synthesized organophosphonates (FIG. 3c).

[2] = target: T2, lipase from Rhizopus oryzae (ROL) (Rhizopus oryzae, UniProt P61872); experiment: as above; format: biochemical; conditions: 4° C. for 16 hrs, 100 μM Tris-HCl puffer, inhibitor 1.0 mM, lipase 0.1 mM; FIG. 3a
T2 construct: F. Spener and L. Haalck, University of Münster (gift)
T2 sequence (P61872 96-392): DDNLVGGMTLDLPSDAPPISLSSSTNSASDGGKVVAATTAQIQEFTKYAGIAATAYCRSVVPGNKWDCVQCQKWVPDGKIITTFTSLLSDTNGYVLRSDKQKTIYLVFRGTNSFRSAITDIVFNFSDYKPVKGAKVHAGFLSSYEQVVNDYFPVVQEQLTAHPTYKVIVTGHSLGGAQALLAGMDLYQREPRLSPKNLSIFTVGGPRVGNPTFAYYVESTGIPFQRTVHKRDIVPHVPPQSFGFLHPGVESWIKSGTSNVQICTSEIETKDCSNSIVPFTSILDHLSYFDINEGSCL
Method: as §1, §2, §3

Row | Compound | inhibition of lipase from Pseudomonas cepacia [1] | inhibition (inactivation) of lipase from Rhizopus oryzae [2]
1 | CCCCCCCCOCC(COP(=O)(CCCCCC)Oc1ccc([N+](=O)[O-])cc1)NC(=O)CCCc1ccc2c3cccc4cccc(c5cccc1c52)c43 (stereo not drawn) [XXII, 2-(4-(3-Perylenyl)butanoyl)amino-2-deoxy-3-O-octyl-sn-glycero-1-O-hexylphosphonate p-nitrophenyl ester] | much more potent inhibitor | –
2 | CCCCCCCCCCCCCCCCOCC(COP(=O)(CCCCCC)Oc1ccc([N+](=O)[O-])cc1)NC(=O)CCCCCCCc1ccc2c3cccc4cccc(c5cccc1c52)c43 (stereo not drawn) [XXIII, 2-(8-(3-Perylenyl)octanoyl)amino-2-deoxy-3-O-hexadecyl-sn-glycero-1-O-hexylphosphonate p-nitrophenyl ester] | – | somewhat more active
3 | CCCCCCCCCCCCCCCCOCC(COP(=O)(CCCCCC)Oc1ccc([N+](=O)[O-])cc1)NC(=O)CCCCCCCCCCCNc1ccc([N+](=O)[O-])c2nonc12 (stereo not drawn) [XXV, 2-(NBD-dodecanoyl)amino-2-deoxy-3-O-hexadecyl-sn-glycero-1-O-hexylphosphonate p-nitrophenyl ester] | – | slightly more effective
